Assays:
Assay in all cases: Kinase profiling in a biochemical assay panel (mobility shift assays and ELISA), %-inhibition at 1 μM; selectivity entropy
[1] = biological target: panel of more than 300 wild-type and mutant kinases (313 kinase panel) (Homo sapiens, UniProt Q9NQU5)
[2] = biological target: panel of more than 300 wild-type and mutant kinases (313 kinase panel) (Homo sapiens, UniProt P49137); conditions: kinase MAPKAPK2; compound at 1 μM
[3] = biological target: T1, panel of more than 300 wild-type and mutant kinases (313 kinase panel) (Homo sapiens, UniProt Q96PY6); conditions: kinase NEK1; 1 μM
T1 sequence (Q96PY6 1-1258): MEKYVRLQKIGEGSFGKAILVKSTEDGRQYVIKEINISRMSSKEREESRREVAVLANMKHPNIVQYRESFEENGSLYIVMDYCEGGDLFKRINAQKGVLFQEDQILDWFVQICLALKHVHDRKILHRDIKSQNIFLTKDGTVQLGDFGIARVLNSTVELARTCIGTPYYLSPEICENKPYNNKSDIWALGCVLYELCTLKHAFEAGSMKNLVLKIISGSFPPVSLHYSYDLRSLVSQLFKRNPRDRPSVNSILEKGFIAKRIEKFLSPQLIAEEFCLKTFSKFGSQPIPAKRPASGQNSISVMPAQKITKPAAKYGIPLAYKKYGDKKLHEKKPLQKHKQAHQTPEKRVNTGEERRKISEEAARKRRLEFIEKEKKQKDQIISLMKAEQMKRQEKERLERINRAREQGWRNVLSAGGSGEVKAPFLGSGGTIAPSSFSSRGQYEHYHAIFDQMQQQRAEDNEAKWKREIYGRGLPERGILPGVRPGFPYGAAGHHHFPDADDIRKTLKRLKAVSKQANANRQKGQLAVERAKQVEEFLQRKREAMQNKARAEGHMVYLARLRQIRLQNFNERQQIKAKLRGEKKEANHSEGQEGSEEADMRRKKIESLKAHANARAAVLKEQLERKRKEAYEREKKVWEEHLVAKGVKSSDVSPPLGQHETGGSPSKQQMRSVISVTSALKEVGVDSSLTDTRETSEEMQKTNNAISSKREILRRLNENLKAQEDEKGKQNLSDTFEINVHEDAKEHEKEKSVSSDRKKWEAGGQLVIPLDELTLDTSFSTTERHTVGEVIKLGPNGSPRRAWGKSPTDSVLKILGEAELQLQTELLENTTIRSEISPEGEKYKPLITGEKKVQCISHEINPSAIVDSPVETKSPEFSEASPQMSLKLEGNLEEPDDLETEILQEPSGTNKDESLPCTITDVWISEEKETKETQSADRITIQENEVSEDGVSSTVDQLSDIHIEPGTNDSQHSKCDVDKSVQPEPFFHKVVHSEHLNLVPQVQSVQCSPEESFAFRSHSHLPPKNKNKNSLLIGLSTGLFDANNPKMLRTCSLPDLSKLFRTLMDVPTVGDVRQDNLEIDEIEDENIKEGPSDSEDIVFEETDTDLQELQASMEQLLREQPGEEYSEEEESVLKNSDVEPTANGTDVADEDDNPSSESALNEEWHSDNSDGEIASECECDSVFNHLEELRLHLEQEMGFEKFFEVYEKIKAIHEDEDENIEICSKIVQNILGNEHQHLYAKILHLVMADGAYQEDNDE

[4] = biological target: panel of more than 300 wild-type and mutant kinases (313 kinase panel) (Homo sapiens, UniProt Q8N568)
[5] = biological target: panel of more than 300 wild-type and mutant kinases (313 kinase panel) (Homo sapiens, UniProt P51957); conditions: kinase NEK4; 1 μM
Chain of panel of more than 300 wild-type and mutant kinases (313 kinase panel) (Homo sapiens, UniProt P51957) (P51957 whole entry, change not shown): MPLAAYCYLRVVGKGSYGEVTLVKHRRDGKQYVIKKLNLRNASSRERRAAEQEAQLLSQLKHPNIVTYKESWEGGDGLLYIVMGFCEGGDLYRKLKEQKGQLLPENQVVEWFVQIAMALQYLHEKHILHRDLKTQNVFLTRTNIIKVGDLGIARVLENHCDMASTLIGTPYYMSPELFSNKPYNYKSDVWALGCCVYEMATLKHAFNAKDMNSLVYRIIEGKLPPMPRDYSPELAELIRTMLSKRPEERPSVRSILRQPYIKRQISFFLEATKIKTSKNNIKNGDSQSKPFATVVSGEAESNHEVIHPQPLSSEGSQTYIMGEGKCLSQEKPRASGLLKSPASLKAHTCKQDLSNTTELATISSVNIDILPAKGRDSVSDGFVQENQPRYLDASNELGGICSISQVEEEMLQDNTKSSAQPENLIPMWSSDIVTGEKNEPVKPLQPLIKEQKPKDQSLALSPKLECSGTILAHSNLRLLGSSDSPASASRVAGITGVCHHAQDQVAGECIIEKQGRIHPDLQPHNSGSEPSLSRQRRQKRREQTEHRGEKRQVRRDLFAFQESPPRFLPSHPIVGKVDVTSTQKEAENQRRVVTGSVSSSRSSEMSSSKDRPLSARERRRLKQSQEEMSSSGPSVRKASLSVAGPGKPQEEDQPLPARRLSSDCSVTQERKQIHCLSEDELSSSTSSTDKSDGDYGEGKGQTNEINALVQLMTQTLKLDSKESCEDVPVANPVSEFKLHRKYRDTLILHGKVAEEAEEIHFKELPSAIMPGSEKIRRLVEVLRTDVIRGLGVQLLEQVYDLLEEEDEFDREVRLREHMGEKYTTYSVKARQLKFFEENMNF

[6] = biological target: panel of more than 300 wild-type and mutant kinases (313 kinase panel) (Homo sapiens, UniProt Q9UM73)
[7] = biological target: panel of more than 300 wild-type and mutant kinases (313 kinase panel) (Homo sapiens, UniProt Q06187)
[8] = biological target: T2, panel of more than 300 wild-type and mutant kinases (313 kinase panel) (Homo sapiens, UniProt Q96L34); conditions: kinase MARK4; compound at 1 μM
T2 sequence (Q96L34 1-752): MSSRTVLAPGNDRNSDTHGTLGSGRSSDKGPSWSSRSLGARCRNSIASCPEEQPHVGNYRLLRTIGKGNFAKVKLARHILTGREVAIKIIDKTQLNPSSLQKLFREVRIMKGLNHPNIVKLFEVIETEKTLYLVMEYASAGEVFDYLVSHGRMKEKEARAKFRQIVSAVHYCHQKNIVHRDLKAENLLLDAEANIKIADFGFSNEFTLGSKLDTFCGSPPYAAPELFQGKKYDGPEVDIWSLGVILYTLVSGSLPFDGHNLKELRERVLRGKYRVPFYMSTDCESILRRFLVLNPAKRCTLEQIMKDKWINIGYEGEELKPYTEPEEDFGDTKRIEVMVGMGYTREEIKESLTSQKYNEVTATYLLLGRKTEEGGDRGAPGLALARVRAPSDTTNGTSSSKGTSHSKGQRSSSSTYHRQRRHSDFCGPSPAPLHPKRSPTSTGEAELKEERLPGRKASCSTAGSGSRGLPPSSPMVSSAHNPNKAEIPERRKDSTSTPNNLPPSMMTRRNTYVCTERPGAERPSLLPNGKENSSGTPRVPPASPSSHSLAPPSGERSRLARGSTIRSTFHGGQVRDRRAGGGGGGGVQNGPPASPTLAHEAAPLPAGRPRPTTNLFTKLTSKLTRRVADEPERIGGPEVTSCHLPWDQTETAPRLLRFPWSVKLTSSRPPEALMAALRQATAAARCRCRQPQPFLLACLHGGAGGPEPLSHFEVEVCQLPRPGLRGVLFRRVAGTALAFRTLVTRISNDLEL

[9] = biological target: panel of more than 300 wild-type and mutant kinases (313 kinase panel) (Homo sapiens, UniProt O00311); conditions: kinase CDC7/ASK; 1 μM compound
[10] = kinase DCAMKL2, compound at 1 μM

Chain of panel of more than 300 wild-type and mutant kinases (313 kinase panel) (Homo sapiens, UniProt P49137) (P49137 whole entry, change not shown): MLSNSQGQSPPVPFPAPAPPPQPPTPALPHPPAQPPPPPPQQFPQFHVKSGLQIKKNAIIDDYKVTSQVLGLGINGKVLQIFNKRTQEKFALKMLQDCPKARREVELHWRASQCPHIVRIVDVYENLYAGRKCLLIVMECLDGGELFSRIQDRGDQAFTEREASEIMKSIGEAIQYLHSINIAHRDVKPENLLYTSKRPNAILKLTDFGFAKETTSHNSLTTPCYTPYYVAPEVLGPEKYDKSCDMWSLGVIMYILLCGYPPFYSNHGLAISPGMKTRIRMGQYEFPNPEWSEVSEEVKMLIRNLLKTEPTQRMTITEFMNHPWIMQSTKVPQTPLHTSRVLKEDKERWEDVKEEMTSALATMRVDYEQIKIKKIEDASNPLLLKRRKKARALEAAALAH

| Structure (SMILES) | %-inhibition of PAK6 ([1]; 1 µM) | %-inhibition of MAPKAPK2 [2] | %-inhibition of NEK1 [3] | %-inhibition of DCAMKL2 [4, 10] | %-inhibition of NEK4 [5] | %-inhibition, ALK ([6]; kinase ALK, 1 μM compound) | %-inhibition, BTK ([7]; kinase BTK, 1 μM compound) | %-inhibition of MARK4 [8] | %-inhibition, CDC7/ASK [9] | %-inhibition of PAK6 ([1]; kinase PAK6, 1 μM) | %-inhibition of DCAMKL2 ([4]; 1 µM) | %-inhibition, ALK ([6]; 1 µM) | %-inhibition, BTK ([7]; 1 µM) |
| --- | --- | --- | --- | --- | --- | --- | --- | --- | --- | --- | --- | --- | --- |
| Cc1cn(-c2cc(NC(=O)c3ccc(C)c(Nc4nccc(-c5cccnc5)n4)c3)cc(C(F)(F)F)c2)cn1 [nilotinib] | -102% | 2.56% | -23% | -17% | -22% | -8% | 45% | 12% | -7% |  |  |  |  |
| Cc1ccc(Nc2nccc(N(C)c3ccc4c(C)n(C)nc4c3)n2)cc1S(N)(=O)=O [pazopanib] |  | -2.44% | 2.41% | -2.72% | 12% | 48% | 13% | 9% | -3.46% | 5.54% |  |  |  |
| CNC(=O)c1cc(Oc2ccc(NC(=O)Nc3ccc(Cl)c(C(F)(F)F)c3)c(F)c2)ccn1 [regorafenib] |  | -21% | -7% | -6% | -4% | -3.43% | 2.55% | -16% | -5.36% | -8% |  |  |  |
| N#CC[C@H](C1CCCC1)n1cc(-c2ncnc3[nH]ccc23)cn1 [ruxolitinib] |  | -18% | -4% |  | -6% |  |  | 53% | 5.36% | 3% | 64% | 69% | -6% |
| CO[C@H]1C[C@@H]2CC[C@@H](C)[C@@](O)(O2)C(=O)C(=O)N2CCCC[C@H]2C(=O)O[C@H]([C@H](C)C[C@@H]2CC[C@@H](OC(=O)C(C)(CO)CO)[C@H](OC)C2)CC(=O)[C@H](C)/C=C(\C)[C@@H](O)[C@@H](OC)C(=O)[C@H](C)C[C@H](C)/C=C/C=C/C=C/1C [temsirolimus] |  | -17% | -8% | -4% | 0.416% | -2% | 18% | -26% | -6% | -6.47% |  |  |  |
| CC(=O)Nc1cccc(-n2c(=O)n(C3CC3)c(=O)c3c(Nc4ccc(I)cc4F)n(C)c(=O)c(C)c32)c1 [trametinib] |  | -0.335% | -5% | -2.4% | 2% | -2.82% | 18% | -15% | -8% | 8% |  |  |  |
| CCCS(=O)(=O)Nc1ccc(F)c(C(=O)c2c[nH]c3ncc(-c4ccc(Cl)cc4)cc23)c1F [vemurafenib] |  | -16% | -2.74% | -3.52% | -0.416% | 1.14% | 2% | 3.78% | -7% | -7% |  |  |  |

From PMC3961306, “Comparison of the Cancer Gene Targeting and Biochemical Selectivities of All Targeted Kinase Inhibitors Approved for Clinical Use” (PLoS ONE, 2014)
